Measured values reported in article PMC6213206, “Cyclopropane-Containing Fatty Acids from the Marine Bacterium Labrenzia sp. 011 with Antimicrobial and GPR84 Activity” (Marine Drugs, 2018).

How the values were obtained:
Escherichia coli DSM 498 = assay: disc diffusion assay; assay type: cell-based; conditions: DSM498, 50 μg per disc, read-out: growth inhibition zone
[1] = tested on: Eurotium rubrum DSM 62631; assay: disc diffusion assay; assay type: cell-based; conditions: for zone of inhibition at 50 µg/disc: Aspergillus ruber, DSM62631, 50 μg per disc, read-out: growth inhibition zone
Experimental: (§1) Compounds 1 and 2 were tested against a range of microorganisms, namely the Gram-positive bacterium Bacillus megaterium DSM 32, the Gram-negative bacterium Escherichia coli JM 83 and Pseudoroseovarius crassostreae DSM 16950^T; the fungal organisms utilized were Eurotium rubrum DSM 62631, Microbotryum violaceum MB#110229, and Mycotypha microspora MB#271115. Tests were performed according to Reference. 50 μg of pure compounds or positive controls were taken from a solution of 1 mg/mL and applied on sterile paper discs on agar plates of the corresponding medium for each test organism. Multidrug-resistant pathogens Escherichia coli I-11276b, MRSA LT-1338, MRSA LT-1334 were tested with 4 μg of compound 2 in each disc. Thereafter, suspensions of the organisms were sprayed on the agar and incubated. Miconazole and streptomycin were used as positive controls. Inhibition zones were measured from the edge of the disc to the end of the area free of growth. Only total inhibition (>1 mm) was considered as a positive result.

[2] = tested on: Microbotryum violaceum MB#110229; assay: disc diffusion assay; assay type: cell-based; conditions: 50 μg per disc, read-out: growth inhibition zone
Experimental: as §1

[3] = tested on: Mycotypha microspora MB#271115; assay: disc diffusion assay; assay type: cell-based; conditions: 50 μg per disc, read-out: growth inhibition zone
Experimental: as §1

[4] = tested on: Pseudoroseovarius crassostreae DSM 16950T; assay: disc diffusion assay; assay type: cell-based; conditions: Aliiroseovarius crassostreae, DSM16950T, 50 μg per disc, read-out: growth inhibition zone
Experimental: as §1

human GPR84 [5] = target: T1, human GPR84 (Homo sapiens, UniProt Q9NQS5); assay: cAMP accumulation assay in CHO cells expressing human GPR84; assay type: cell-based; design: Emax: dose or concentration left out as unconfirmed; conditions: for activity in cAMP assay (in words): Gi-mediated signaling; for cAMP Assay percent receptor activation: at 100 μM, forskolin 10 μM; for EC50: read-out: cAMP Assay EC50 ± SD
T1 construct: CHO-hGPR84)
Source text: (§2) cAMP accumulation assays determined the potency of the test compounds to inhibit forskolin-induced cAMP accumulation in Chinese hamster ovary (CHO) cells, stably expressing human GPR84, whereas the β-arrestin recruitment assays used the enzyme complementation technology.
(§3) The recombinant CHO cell line expressing the human GPR84 (CHO-hGPR84) with a β-galactosidase fragment and β-arrestin containing the complementary fragment of the enzyme was purchased from DiscoverX (Fremont, CA, USA). This cell line was used for the β-arrestin recruitment assays as well as for cAMP accumulation assays. The CHO-hGPR84 cells were cultured in F12 medium supplemented with 10% FCS, 100 units/mL penicillin G, 100 μg/mL streptomycin, 800 μg/mL G 418, 300 μg/mL hygromycin B, and 1% ultraglutamin (Invitrogen, Carlsbad, CA or Sigma-Aldrich, St. Louis, MO, USA). Stock solutions of compounds were prepared in DMSO (final DMSO concentration: 1%). Data were analyzed using Graph Pad Prism version 6.0 (San Diego, CA, USA). Concentration-response data were fitted by nonlinear regression to estimate EC50 values.
cAMP assays were performed as previously described. CHO cells overexpressing the human GPR84 were stimulated with forskolin (10 μM) in the absence (control) or presence of test compound for 15 min. The reaction was stopped by the addition of hot (90 °C) lysis solution containing 4 mM EDTA and 0.01% Triton X-100 in water. cAMP levels were quantified by a radioactive assay using [³H]cAMP (Perkin-Elmer, Rodgau, Germany). The forskolin-induced change in cAMP concentration in the presence of the test compound was expressed as a percentage of the response to forskolin in the absence of agonist (% of control). Three independent experiments, each in duplicates were performed.

human GPR84 [6] = target: T1, human GPR84; assay: β-arrestin recruitment assay (β-galactosidase enzyme complementation) in CHO-hGPR84 cells; assay type: cell-based; conditions: for EC50: n = 5, read-out: β-Arrestin Assay EC50 ± SD; for Emax: relative to maximal effect of full agonist embelin (10 μM) = 100%, read-out: β-Arrestin Assay Efficacy (Emax)
Source text: as §2
as §3, with “The CHO-hGPR84 cells were cultured in F12 medium supplemented with 10% FCS, 100 units/mL penicillin G, 100 μg/mL streptomycin, 800 μg/mL G 418, 300 μg/mL hygromycin B, and 1% ultraglutamin (Invitrogen, Carlsbad, CA or Sigma-Aldrich, St. Louis, MO, USA).” left out
β-arrestin assays were performed as previously described. Briefly, CHO cells expressing the human GPR84 with a β-galactosidase fragment and β-arrestin containing the complementary fragment of the enzyme were incubated with a series of compound dilutions (in DMSO, final DMSO concentration: 1%) for 90 min before adding the detection reagent (DiscoverX®, Fremont, CA, USA). After 60 min of incubation at room temperature the luminescence was measured using an NXT plate reader (Perkin-Elmer, Rodgau, Germany). Three to five independent experiments were performed, each in duplicates.

[7] = tested on: Escherichia coli I-11276b; assay: disc diffusion assay, multidrug-resistant pathogen; assay type: cell-based; conditions: I11276B; Escherichia coli I-11276b (multidrug-resistant); 4 μg per disc; read-out: growth inhibition zone
Experimental: as §1

MRSA LT-1334 = assay: disc diffusion assay, multidrug-resistant pathogen; assay type: cell-based; conditions: Staphylococcus aureus; MRSA LT-1334 (multidrug-resistant); 4 μg per disc; read-out: growth inhibition zone
Experimental: as §1

MRSA LT-1338 = assay: disc diffusion assay, multidrug-resistant pathogen; assay type: cell-based; conditions: Staphylococcus aureus; MRSA LT-1338 (multidrug-resistant); 4 μg per disc; read-out: growth inhibition zone
Experimental: as §1

[8] = tested on: Bacillus megaterium DSM 32; assay: disc diffusion assay; assay type: cell-based; conditions: Priestia megaterium, DSM32, 50 μg per disc, read-out: growth inhibition zone
Experimental: as §1

human GPR84 [9] = target: T1, human GPR84; design: method as in PMID 28406627; conditions: relative to maximal effect of full agonist decanoic acid (100 μM) = 100%; cited from earlier work

T1 sequence (Q9NQS5 whole entry): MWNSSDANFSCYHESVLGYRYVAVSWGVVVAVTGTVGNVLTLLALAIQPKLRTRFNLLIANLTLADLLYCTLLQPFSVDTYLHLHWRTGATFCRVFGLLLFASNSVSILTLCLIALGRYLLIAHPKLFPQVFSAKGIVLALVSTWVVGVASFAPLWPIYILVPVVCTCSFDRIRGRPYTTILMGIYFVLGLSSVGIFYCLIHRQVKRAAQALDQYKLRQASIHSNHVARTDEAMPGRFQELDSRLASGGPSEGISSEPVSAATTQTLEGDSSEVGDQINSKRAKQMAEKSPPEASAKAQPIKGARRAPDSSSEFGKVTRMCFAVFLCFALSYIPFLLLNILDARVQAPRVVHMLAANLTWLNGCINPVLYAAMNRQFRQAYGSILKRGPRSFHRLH

Row | Structure (SMILES) | cAMP Assay percent receptor activation (human GPR84 [5]) [%] | EC50 (human GPR84 [5]) [µM] | EC50 (human GPR84 [6]) [nM] | Emax (human GPR84 [6]) [%] | zone of inhibition at 50 µg/disc (Escherichia coli DSM 498) [mm] | zone of inhibition at 50 µg/disc [2] [mm] | zone of inhibition at 50 µg/disc [3] [mm] | zone of inhibition at 50 µg/disc [4] [mm] | activity in cAMP assay (in words) (human GPR84 [5]) | zone of inhibition at 50 µg/disc [8] [mm] | zone of inhibition at 50 µg/disc [1] [mm] | also measured
1 | CCCCCCCCCC(=O)O [Decanoic acid] | – | – | – | – | – | – | – | – | – | – | – | cAMP Assay Efficacy (Emax) (human GPR84 [9]): 100% [26]
2 | Clc1ccc(COC(Cn2ccnc2)c2ccc(Cl)cc2Cl)c(Cl)c1 (stereo not shown) [Miconazole, reference compound] | – | – | – | – | – | 6 | 9 | – | – | – | 8 | –
3 | [H]/N=C(/N)N[C@H]1[C@H](O)[C@@H](O)[C@H](O[C@@H]2O[C@@H](C)[C@](O)(C=O)[C@H]2O[C@@H]2O[C@@H](CO)[C@H](O)[C@@H](O)[C@@H]2NC)[C@@H](N/C(N)=N\[H])[C@@H]1O [Streptomycin, reference compound] | – | – | – | – | 6 | – | – | 6 | – | 9 | – | –

More lines, main results first:

Row | cAMP Assay percent receptor activation (human GPR84 [5]) [%] | EC50 (human GPR84 [5]) [µM] | EC50 (human GPR84 [6]) [nM] | Emax (human GPR84 [6]) [%] | Structure (SMILES) | zone of inhibition at 50 µg/disc (Escherichia coli DSM 498) [mm] | zone of inhibition at 50 µg/disc [2] [mm] | zone of inhibition at 50 µg/disc [3] [mm] | zone of inhibition at 50 µg/disc [4] [mm] | activity in cAMP assay (in words) (human GPR84 [5]) | zone of inhibition at 50 µg/disc [8] [mm] | zone of inhibition at 50 µg/disc [1] [mm] | also measured
4 | 0 | > 100 | > 30000 | – | CCCCCC[C@H]1C[C@H]1CCCC(=O)O (relative stereo) [Compound 1, cis-4-(2-hexylcyclopropyl)-butanoic acid] | 2 | 8 | 3 | 5 | inactive | – | – | growth inhibition zone ([1]; 50 μg per disc): devoid of activity; activity in β-arrestin assay (in words) (human GPR84 [6]): inactive; β-Arrestin Assay percent receptor activation (human GPR84 [6]; at 30 μM): 17%
5 | 24 | > 100 | 114 ± 135 | 54 | CCCCCC[C@H]1C[C@H]1CC(=O)O (relative stereo) [Compound 2, cis-2-(2-hexylcyclopropyl)-acetic acid] | 3 | 10 | 6 | 5 | did neither induce nor block Gi-mediated signaling | 10 | 10 | zone of inhibition at 4 µg/disc [7]: 2 mm; zone of inhibition at 4 µg/disc (MRSA LT-1334): 3 mm; zone of inhibition at 4 µg/disc (MRSA LT-1338): 2 mm; potency in β-arrestin assay relative to dodecanoic acid (human GPR84 [6]; fold more potent than dodecanoic acid (EC50 = 2.84 μM)): 25 fold
6 | – | 8.87 ± 4.46 | 2840 ± 540 | 95 | CCCCCCCCCCCC(=O)O [Dodecanoic acid, reference compound] | – | – | – | – | – | – | – | Emax (human GPR84 [5]; CHO, read-out: cAMP Assay Efficacy (Emax)): 94%
